Assay results from paper PMC10484855, “Production, purification, and characterization of cold-active lipase from the psychrotroph Pseudomonas sp. A6” (Brazilian Journal of Microbiology, 2023).

System: T1, cold-active lipase from Pseudomonas sp. A6
T1 construct: 65 kDa by SDS-PAGE
Assay: spectrophotometric p-nitrophenol release at […] nm; Lineweaver-Burk plot
Format: biochemical
Conditions: 10 °C; phosphate buffer; pH of the Km assay not stated; unit printed ambiguously as 'm mol'

Km: 6.6 * 10^−4 m mol L^−1
Structure (SMILES): CCCCCCCCCCCC(=O)Oc1ccc([N+](=O)[O-])cc1 [p-nitrophenyl laurate]
